In patent US4032659A (priority 1975, dated 1977):
“Also recorded” adds a separate entry of the source. Where a name gives a salt, the structure may show the parent alone.

System: Influenza Ann Arbor virus
Assay: Chemoprophylaxis of Influenza Ann Arbor (A1) virus infection in mice
Format: in vivo, mouse
Conditions: oral

SMILES	No. animals surviving after 6 days (total dose 30 pg)	Survivors (total dose 30 pg)	No. animals surviving after 6 days (total dose 300 pg)	Survivors (total dose 300 pg)	No. animals surviving after 6 days (total dose 3 ng)	Survivors (total dose 3 ng)	No. animals surviving after 6 days (total dose 30 ng)	Survivors (total dose 30 ng)	No. animals surviving after 6 days (total dose 300 ng)	Survivors (total dose 300 ng)	No. animals surviving after 6 days (total dose 3 μg)	Survivors (total dose 3 μg)	No. animals surviving after 6 days (total dose 30 μg)	Survivors (total dose 30 μg)	No. animals surviving after 6 days (total dose 300 μg)	Survivors (total dose 300 μg)	Survivors (total dose 3 mg)	No. animals surviving after 7 days (total dose 3 ng)	No. animals surviving after 7 days (total dose 30 ng)	No. animals surviving after 7 days (total dose 300 ng)	further results
CN(C)N [1,1-dimethylhydrazine]	5	0	3	0	3	1	2	0	3	0	2	0	1	1	3	0	0				No. animals surviving after 6 days (total dose 3 mg): 2
CNNC [1,2-dimethylhydrazine, dihydrochloride]	6	1	2	0	3	0	3	1	5	0	3	0	4	0	6	0	0				No. animals surviving after 6 days (total dose 3 mg): 3
CCC(C)=NNC(=N)N.O=[N+]([O-])O [1-(sec-butylideneamino)guanidine, nitrate]						0		0		2		0		2		0		0	1	3	No. animals surviving after 7 days (total dose 3 μg): 0; No. animals surviving after 7 days (total dose 30 μg): 2; No. animals surviving after 7 days (total dose 300 μg): 0
C=CCNC(=S)NN=C1Cc2ccccc2C1 [2-Indanone, 4-allylthiosemicarbazone]		0		0		0		0		0		0		0		0	1	4	6	6	No. animals surviving after 7 days (total dose 30 pg): 4; No. animals surviving after 7 days (total dose 300 pg): 7; No. animals surviving after 7 days (total dose 3 μg): 2; No. animals surviving after 7 days (total dose 30 μg): 6; No. animals surviving after 7 days (total dose 300 μg): 2; No. animals surviving after 7 days (total dose 3 mg): 4
NC(=S)NN=C1Cc2ccccc2C1 [2-indanone, thiosemicarbazone]		1		0		0		0		1		1		0		0					No. animals surviving after 5 days (total dose 30 pg): 8; No. animals surviving after 5 days (total dose 300 pg): 8; No. animals surviving after 5 days (total dose 3 ng): 5; No. animals surviving after 5 days (total dose 30 ng): 9; No. animals surviving after 5 days (total dose 300 ng): 8; No. animals surviving after 5 days (total dose 3 μg): 8; No. animals surviving after 5 days (total dose 30 μg): 8; No. animals surviving after 5 days (total dose 300 μg): 6
CCCC(C)=NNC(N)=S [2-pentanone, thiosemicarbazone]	2	0	2	0	2	0	2	0	1	0	1	0	1	1	0	0					No. animals surviving after 7 days (total dose 15 ng): 3; Survivors (total dose 15 ng): 0; No. animals surviving after 7 days (total dose 22.5 ng): 0; Survivors (total dose 22.5 ng): 0; No. animals surviving after 7 days (total dose 75 ng): 1; Survivors (total dose 75 ng): 0; No. animals surviving after 7 days (total dose 150 ng): 0; Survivors (total dose 150 ng): 0; No. animals surviving after 7 days (total dose 225 ng): 3; Survivors (total dose 225 ng): 0; No. animals surviving after 7 days (total dose 750 ng): 2; Survivors (total dose 750 ng): 0; No. animals surviving after 7 days (total dose 1.5 μg): 2; Survivors (total dose 1.5 μg): 0; No. animals surviving after 7 days (total dose 2.25 μg): 1; Survivors (total dose 2.25 μg): 1
CCC(CC)=NNC(N)=S [3-pentanone, thiosemicarbazone]	2	0	1	0	3	0	0	0	3	0	6	1	7	0	4	0					No. animals surviving after 7 days (total dose 12 μg): 1; Survivors (total dose 12 μg): 0; No. animals surviving after 7 days (total dose 18 μg): 1; Survivors (total dose 18 μg): 1; No. animals surviving after 7 days (total dose 24 μg): 0; Survivors (total dose 24 μg): 0; No. animals surviving after 7 days (total dose 60 μg): 1; Survivors (total dose 60 μg): 0; No. animals surviving after 7 days (total dose 90 μg): 3; Survivors (total dose 90 μg): 0; No. animals surviving after 7 days (total dose 120 μg): 1; Survivors (total dose 120 μg): 1; No. animals surviving after 7 days (total dose 150 μg): 2; Survivors (total dose 150 μg): 1
CNN [Methylhydrazine, methylhydrazine]	2	1	3	0	3	1	4	1	1	0	3	0	3	1	1	0					Toxicity (total dose 3 mg): Toxic; also recorded: Toxic?
O=C(CCNNC(=O)c1ccncc1)NCc1ccccc1 [Nialamide, nialamide, reference compound]																					Survivors (total dose 400pg): 1; Survivors (total dose 4ng): 1; Survivors (total dose 40ng): 0; Survivors (total dose 400ng): 0; Survivors (total dose 4μg): 0; Survivors (total dose 400 μg): 2; Survivors (total dose 4 mg): 1
NC(N)=S [Thiourea]		0		0		1		0		0		0		0		1	0	3	4	2	No. animals surviving after 7 days (total dose 30 pg): 2; No. animals surviving after 7 days (total dose 300 pg): 4; No. animals surviving after 7 days (total dose 3 μg): 7; No. animals surviving after 7 days (total dose 30 μg): 3; No. animals surviving after 7 days (total dose 300 μg): 6; No. animals surviving after 7 days (total dose 3 mg): 5
